Data: US9371295B2, “Compounds for use in the treatment of disorders that are ameliorated by inhibition of HDAC” (IRBM—Science Park S.p.A., priority 2012, dated 2016)
Several values for one entry are separate records, joined by “and”; a condition that tells them apart may be missing. Equal values may be shown once.

Experiments:
[1] = system: erythroid precursor cells (ErPC) from β-thalassemia patients; test: Fetal hemoglobin production in erythroid precursor cells from β-thalassemia patients (HPLC); format: cell-based, human
Source text: Stimulation of the production of mRNA for γ-globin in human erythroid precursors isolated from peripheral blood was detected by using the technique by Fibach (Fibach, E. Hemoglobin, 1998, 22, 445-458; Blood, 1993, 81, 1630-1635). Blood samples were obtained from subjects after written informed consent and the local ethical commette approved the study. This technique provides for two stages: in the first stage, the cells isolated from peripheral blood of an healthy subject or a subject suffering from a hemopoietic pathology, such as sickle cell anaemia or beta-thalassemia, are sown in a culture medium to which 10% of conditioned medium derived from the vescicle carcinoma cell line 5637 has been added. The second stage consists in cultivating the isolated cells in a suitable culture medium, supplemented with erythropoiethin. In short, mononuclear cells were isolated from peripheral blood samples of normal donors and patients by Ficoll-Hypaque density gradient centrifugation and seeded in alpha-minimal essential medium (Sigma-Aldrich) supplemented with 10% FBS (Analitica de Mori), 1 μg/mL cyclosporin A (Sigma-Aldrich), and 10% conditioned medium from the 5637 bladder carcinoma cell line and 10 ng/ml stem cell factor (PeproTech EC Ltd, London, England). After 7-day incubation in this phase I culture, the non-adherent cells were harvested, washed, and recultured in fresh medium composed of α-medium, 30% FBS, 1% de-ionized bovine serum albumin (Sigma-Aldrich), 10^−5 M β-mercaptoethanol, 2 mM L-glutamine, 10^−6 M dexamethasone, 1 U/ml human recombinant erythropoietin (Tebu-bio, Magenta, MI, Italy) and 10 ng/ml stem cell factor. This part of the culture is referred to as phase II. Compounds were added on day 4-5 of phase II and cells were harvested on day 12. All cultures were incubated at 37° C., under an atmosphere of 5% CO2 in air, with extra humidity. The expression of the genes encoding for γ-globin was evaluated by quantitative RT-PCR. The production of HbF was analyzed by HPLC. […]

[2] = Rat PK studies, oral dose; format: in vivo, Sprague-Dawley rats; conditions: male, Sprague-Dawley, plasma, po 10 mg/kg
Method: Rats Male Sprague-Dawley rats (250-350 g) were used for the absorption disposition studies. In each rat an indwelling cannula was implanted in the right jugular vein for blood sampling. The surgery was performed under light anaesthesia (Ketamine-Xilazine (85 mg/kg and 2.5 mg/kg respectively i.m.) one day prior the experiment). During the kinetic study, all animals were housed individually in plastic metabolism cages, and were unrestrained throughout the experiment. Compounds (6 mg/mL) were dissolved in 20% DMSO/60% PEG400/20% water for intravenous administration, and dissolved or suspended in 1% methylcellulose for oral administration (2 mg/ml). After an overnight fast, the rats received an i.v. (via caudal vein) or an oral dose of the compound. Blood samples were collected at different times point after dosing. Plasma was separated immediately after blood sampling by centrifugation, and the plasma samples were kept frozen (−20° C.) until assayed by LC/MS/MS.
Analytical procedures: Plasma samples were extracted using Liquid Handling Robot MultiProbe Packard by protein precipitation with acetonitrile. Then the samples were centrifuged (3000 rpm×15 min at 4° C.) and the supernatant transferred and dried under nitrogen. The samples were reconstituted in water/acetonitrile 90/10 and then injected directly into an HPLC column. Sample analyses were performed using a an API 3000 or/and API 2000 or/and API 4000 Mass Spectrometer interfaced via the Turbo Ion Spray (ESI)/APCI to an LC system consisting of an HTS PAL CTC autosampler and an Agilen HP 1100 Binary Pump. The results are calculated using Analyst Software linear regression with 1/x*x weighting. The Assay Precision was calculated for the Quality Controls by Watson Lims database.
Pharmacokinetic Analysis: The plasma clearance (CLp) of the compounds were calculated (using Watson PK program) as the dose divided by the area under the plasma concentration-time curve from time zero to infinity (AUC0-∞). The apparent half-life was estimated from the slope of the terminal phase of the log plasma concentration-time data. The volume of distribution (Vdss) was determined using the following noncompartmental method: Vdss=(Dose IV×AUMC)/(AUC0-∞)2
where AUMC is the total area under the first moment of the drug concentration time curve from time zero to infinity. Bioavailability was estimated as the AUC0-∞ ratio following oral and intravenous administration, normalized for differences in dose.

- AUC [2]: 40 µM·h
- Cmax [2]: 2790 nM
Structure (SMILES): CCC(=O)CCCCC[C@H](NC(=O)C1CN(C)C1)c1ncc(-c2cc3ccccc3nc2OC)o1 [Compound 2, (S)-N-(1-(5-(2-methoxyquinolin-3-yl)oxazol-2-yl)-7-oxononyl)-1-methylazetidine-3-carboxamide]
- % of fetal hemoglobin production ([1]; ErPC from β-thalassemia patients 1-3 (one line per patient), 100 nM): 78.6% and 85.5% and 81.5%
- proportion of HbF in lysates (cation-exchange HPLC, FIG. 1) ([1]; ErPC from β-thalassemic patients, 100 nM, in words): Increase in the proportion of HbF is detectable
- induction of HbF in erythroid precursor cells (ErPC) ([1]; ErPC from β-thalassemic patients, in words): strong inducer of HbF
